Data on 1 molecule can be found in US11633502B2, “Bone marrow-, reticuloendothelial system-, and/or lymph node-targeted radiolabeled liposomes and methods of their diagnostic and therapeutic use” (Memorial Sloan Kettering Cancer Center, priority 2016, dated 2023).

A short description of the test: Blood cell counts of GT3 liposome treated mice after ionizing radiation. The format is in vivo, C57/B6 mice. The conditions noted are these: after exposure to 2 or 4 Gy. As for the experimental part:
FIGS. 28A and 28B show blood cell counts of GT3 liposome treated mice after ionization radiation. White blood cell (WBC) (FIG. 28A) and lymph (FIG. 28B) counts are shown for mice treated with 2 Gy+GT3 containing liposomes, 2 Gy, 4 Gy+GT3 containing liposomes, and 4 Gy.
C57/B6 mice were treated with GT3 containing BMT liposomes with 10 mg/kg GT3 at 24 h prior to 2 and 4 Gy. Blood cells were counted at 0, 1, 4, 6, 13 days after irradiation. […] Lymphocyte recovery is the most significant. […] This effect was not seen when GT3 was not targeted to the bone marrow.

With `CC(C)=CCC/C(C)=C/CC/C(C)=C/CC[C@]1(C)CCc2cc(O)c(C)c(C)c2O1` [GT3], the “recovery of lymphocyte and neutrophils” value is “not seen”.
